The supplement of paper PMC11061612

How the values were obtained:
Assay in all cases: combination Emax (second highest fraction inhibited in the dose matrix, 72 h); higher = more inhibition; extreme values may be limits of the assay
[1] = tested on: BHT-101 (Thyroid Gland Carcinoma)
Summary of the method: (§1)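 Bliss excess equals the observed combination effect minus the expected value EA + EB − EA·EB, where EA and EB are the effects of each agent alone. Combination Emax is the second-highest inhibition within the matrix. Inhibition was scaled from CellTiter-Glo 2.0 luminescence, with 0 set by vehicle wells and 1 by blank wells, after 72 hours of two-drug dosing of cells plated in 1536-well plates.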

[2] = tested on: C-33-A (Cervical Carcinoma)
Summary of the method: as §1

[3] = tested on: COR-L88 (Small Cell Lung Carcinoma)
Summary of the method: as §1

[4] = tested on: DBTRG-05MG (Glioblastoma)
Summary of the method: as §1

[5] = tested on: IST-MEL1 (Melanoma)
Summary of the method: as §1

[6] = tested on: KP-4 (Pancreatic Carcinoma)
Summary of the method: as §1

[7] = tested on: LS-1034 (Colorectal Carcinoma)
Summary of the method: as §1

[8] = tested on: MM1S (Plasma Cell Myeloma)
Summary of the method: as §1

[9] = tested on: NCI-H1341 (Small Cell Lung Carcinoma)
Summary of the method: as §1

[10] = tested on: NCI-H2373 (Mesothelioma)
Summary of the method: as §1

[11] = tested on: NCI-H596 (Other Solid Carcinomas)
Summary of the method: as §1

[12] = tested on: NMC-G1 (Low Grade Glioma)
Summary of the method: as §1

[13] = tested on: OAW-28 (Ovarian Carcinoma)
Summary of the method: as §1

[14] = tested on: OVCAR-3 (Ovarian Carcinoma)
Summary of the method: as §1

[15] = tested on: SCC-4 (Oral Cavity Carcinoma)
Summary of the method: as §1

[16] = tested on: SKG-IIIa (Cervical Carcinoma)
Summary of the method: as §1

[17] = tested on: SNU-C2B (Colorectal Carcinoma)
Summary of the method: as §1

[18] = tested on: T47D (Breast Carcinoma)
Summary of the method: as §1

[19] = tested on: UACC-257 (Melanoma)
Summary of the method: as §1

[20] = tested on: WM35 (Melanoma)
Summary of the method: as §1

Row | Compound | combination Emax [1] | combination Emax [2] | combination Emax [3] | combination Emax [4] | combination Emax [5] | combination Emax [6] | combination Emax [7] | combination Emax [8] | combination Emax [9] | combination Emax [10] | combination Emax [11] | combination Emax [12] | combination Emax [13] | combination Emax [14] | combination Emax [15] | combination Emax [16] | combination Emax [17] | combination Emax [18] | combination Emax [19] | combination Emax [20]
1 | CN(CCO)CC[C@H](CSc1ccccc1)Nc1ccc(S(=O)(=O)NC(=O)c2ccc(N3CCC([C@@H](O)c4ccccc4-c4ccc(Cl)cc4)CC3)cc2)cc1S(=O)(=O)C(F)(F)F [AZD4320] + CN(C)CCCOc1ccc(-c2ccc3ncc4c(c3c2)n(C2CCOCC2)c(=O)n4C)cn1 [AZD0156] (first compound max 1 µM, 7x7, partner max 1 µM) | 0.394 | 0.126 | 0.957 | 0.745 | 0.249 | 0.101 | 0.347 | 0.984 | 0.974 | 0.191 | 0.289 | 0.756 | 0.912 | 0.132 | 0.612 | 0.109 | 0.208 | 0.283 | 0.141 | 0.152
2 | C[C@@H]1COCCN1c1cc(C2([S@](C)(=N)=O)CC2)nc(-c2ccnc3[nH]ccc23)n1 [AZD6738] + O=C(c1cc(Cc2n[nH]c(=O)c3ccccc23)ccc1F)N1CCN(C(=O)C2CC2)CC1 [Olaparib] (first compound max 10 µM, 7x7, partner max 10 µM) | 0.663 | 0.89 | 0.342 | 0.239 | 0.726 | 0.706 | 0.56 | 0.642 | 0.755 | 0.66 | 0.5 | 0.392 | 0.396 | 0.555 | 0.729 | 0.444 | 0.69 | 0.301 | 0.142 | 0.547
3 | Cc1c2c(nn1C)CSCc1cc(n(C)n1)CSc1cc(c3ccccc3c1)OCCCc1c(C(=O)O)n(C)c3c-2c(Cl)ccc13 [AZD5991] + C[C@@H](Nc1cc(F)cc(F)c1)c1cc(C(=O)N(C)C)cc2c(=O)cc(N3CCOCC3)oc12 [AZD8186] (first compound max 1 µM, 7x7, partner max 3 µM) | 0.659 | 0.224 | 0.221 | 0.266 | 0.303 | 0.206 | 0.172 | 0.958 | 0.706 | 0.287 | 0.299 | 0.224 | 0.418 | 0.439 | 0.598 | 0.24 | 0.177 | 0.504 | 0.28 | 0.307
4 | CN(C)CCCOc1ccc(-c2ccc3ncc4c(c3c2)n(C2CCOCC2)c(=O)n4C)cn1 [AZD0156] + C=CCn1c(=O)c2cnc(Nc3ccc(N4CCN(C)CC4)cc3)nc2n1-c1cccc(C(C)(C)O)n1 [AZD1775] (first compound max 1 µM, partner max 1 µM) | 0.423 | 0.894 | 0.622 | 0.175 | 0.551 | 0.571 | 0.289 | 0.732 | 0.675 | 0.408 | 0.307 | 0.264 | 0.27 | 0.32 | 0.526 | 0.203 | 0.55 | 0.343 | 0.14 | 0.348
5 | CN(C)CCCOc1ccc(-c2ccc3ncc4c(c3c2)n(C2CCOCC2)c(=O)n4C)cn1 [AZD0156] + CCN(CCO)CCCOc1ccc2c(Nc3cc(CC(=O)Nc4cccc(F)c4)[nH]n3)ncnc2c1 [AZD2811] (first compound max 1 µM, 7x7, partner max 1 µM) | 0.203 | 0.0887 | 0.127 | 0.154 | 0.231 | 0.327 | 0.108 | 0.34 | 0.409 | 0.354 | 0.207 | 0.126 | 0.175 | 0.105 | 0.336 | 0.0993 | 0.113 | 0.282 | 0.119 | 0.119
6 | CN(C)CCCOc1ccc(-c2ccc3ncc4c(c3c2)n(C2CCOCC2)c(=O)n4C)cn1 [AZD0156] + C[C@@H]1COCCN1C2=NC(=NC(=C2)C3(CC3)[S@](=N)(=O)C)C4=C5C=CNC5=NC=C4 [AZD6738] (first compound max 1 µM, 7x7, partner max 10 µM) | 0.627 | 0.886 | 0.8 | 0.251 | 0.745 | 0.451 | 0.615 | 0.698 | 0.849 | 0.588 | 0.454 | 0.269 | 0.39 | 0.271 | 0.702 | 0.233 | 0.681 | 0.282 | 0.145 | 0.771
7 | Cc1cc2ncnn2cc1Nc1ncc2c(n1)n(C1CCOCC1)c(=O)n2C [AZD7648] + CCN(CCO)CCCOc1ccc2c(Nc3cc(CC(=O)Nc4cccc(F)c4)[nH]n3)ncnc2c1 [AZD2811] (first compound max 10 µM, 7x7, partner max 1 µM) | 0.25 | 0.368 | 0.244 | 0.228 | 0.457 | 0.4 | 0.264 | 0.346 | 0.371 | 0.534 | 0.243 | 0.279 | 0.217 | 0.116 | 0.307 | 0.297 | 0.224 | 0.456 | 0.278 | 0.155
8 | CC1(C)CCC(CN2CCN(c3ccc(C(=O)NS(=O)(=O)c4ccc(NCC5CCOCC5)c([N+](=O)[O-])c4)c(Oc4cnc5[nH]ccc5c4)c3)CC2)=C(c2ccc(Cl)cc2)C1 [Venetoclax] + C=CCn1c(=O)c2cnc(Nc3ccc(N4CCN(C)CC4)cc3)nc2n1-c1cccc(C(C)(C)O)n1 [AZD1775] (first compound max 1 µM, partner max 1 µM) | 0.489 | 0.961 | 0.939 | 0.241 | 0.799 | 0.56 | 0.56 | 0.908 | 0.808 | 0.364 | 0.259 | 0.394 | 0.233 | 0.63 | 0.637 | 0.271 | 0.609 | 0.219 | 0.185 | 0.165
9 | CC1(C)CCC(CN2CCN(c3ccc(C(=O)NS(=O)(=O)c4ccc(NCC5CCOCC5)c([N+](=O)[O-])c4)c(Oc4cnc5[nH]ccc5c4)c3)CC2)=C(c2ccc(Cl)cc2)C1 [Venetoclax] + C[C@@H](Nc1cc(F)cc(F)c1)c1cc(C(=O)N(C)C)cc2c(=O)cc(N3CCOCC3)oc12 [AZD8186] (first compound max 1 µM, 7x7, partner max 3 µM) | 0.272 | 0.154 | 0.617 | 0.12 | 0.336 | 0.421 | 0.0835 | 0.288 | 0.583 | 0.216 | 0.241 | 0.171 | 0.331 | 0.241 | 0.614 | 0.168 | 0.125 | 0.272 | 0.121 | 0.0866
10 | CC(=O)Nc1cccc(-n2c(=O)n(C3CC3)c(=O)c3c(Nc4ccc(I)cc4F)n(C)c(=O)c(C)c32)c1 [Trametinib] + Cc1nc(-c2cn3c(n2)-c2ccc(-c4cnn(C(C)(C)C(N)=O)c4)cc2OCC3)n(C(C)C)n1 [Taselisib] (first compound max 1 µM, 7x7, partner max 10 µM) | 1 | 0.669 | 0.154 | 0.69 | 0.932 | 0.694 | 0.787 | 1 | 0.927 | 0.766 | 0.81 | 0.488 | 0.589 | 0.652 | 0.992 | 0.527 | 0.676 | 0.643 | 0.806 | 0.97
11 | Cc1c2c(nn1C)CSCc1cc(n(C)n1)CSc1cc(c3ccccc3c1)OCCCc1c(C(=O)O)n(C)c3c-2c(Cl)ccc13 [AZD5991] + Cc1cc2ncnn2cc1Nc1ncc2c(n1)n(C1CCOCC1)c(=O)n2C [AZD7648] (first compound max 1 µM, 7x7, partner max 10 µM) | 0.599 | 0.416 | 0.297 | 0.214 | 0.291 | 0.263 | 0.272 | 1 | 0.509 | 0.409 | 0.367 | 0.171 | 0.264 | 0.272 | 0.458 | 0.197 | 0.158 | 0.475 | 0.244 | 0.207
12 | CCN(CCO)CCCOc1ccc2c(Nc3cc(CC(=O)Nc4cccc(F)c4)[nH]n3)ncnc2c1 [AZD2811] + C[C@@H]1COCCN1C2=NC(=NC(=C2)C3(CC3)[S@](=N)(=O)C)C4=C5C=CNC5=NC=C4 [AZD6738] (first compound max 1 µM, 7x7, partner max 10 µM) | 0.555 | 0.87 | 0.615 | 0.236 | 0.731 | 0.611 | 0.64 | 0.646 | 0.733 | 0.534 | 0.377 | 0.372 | 0.396 | 0.221 | 0.633 | 0.326 | 0.655 | 0.313 | 0.16 | 0.575
